What all share (format): cell-based
In data set [1] the test system is Osterix (BMP target gene). Briefly: Osterix mRNA in aortic valve interstitial cells treated with sGC agonists. To be noted: for Osterix expression: 24 hours. As to the method: (§1) In vitro cell culture studies: Aortic valve interstitial cells were isolated using an outgrowth method, and were expanded in DMEM/F-10 medium with 10% FBS and studied in passages 2-10. Cells were treated for 24 hours under each experimental condition, at which point mRNA was harvested using lysis buffer. After mRNA isolation and reverse transcription, gene expression was measured using quantitative real-time RT-PCR and Taqman primers. Changes in gene expression were assessed by the ddCt method and expressed as fold-change normalized to control conditions.
In vitro studies were conducted in aortic valve interstitial cells to determine the effects of several sGC agonists on mRNA levels of Osterix, a BMP target gene. Cells were treated with nelociguat, vericiguat, lificiguat, or BAY41-8543, and Osterix mRNA levels were determined. Nelociguat and BAY41-8543 were used at concentrations ranging from 1 nM to 10 μM, while vericiguat and lificiguat were used at concentrations ranging from 1 nM to 1 μM.

The next data set concerns the target T1, sGC (Mus musculus, UniProt O54865).
T1 construct: endogenous in cells; host or cells: primary mouse aortic valve interstitial cells (mVICs) from C57BL6/J mice
T1 sequence (O54865 1-620): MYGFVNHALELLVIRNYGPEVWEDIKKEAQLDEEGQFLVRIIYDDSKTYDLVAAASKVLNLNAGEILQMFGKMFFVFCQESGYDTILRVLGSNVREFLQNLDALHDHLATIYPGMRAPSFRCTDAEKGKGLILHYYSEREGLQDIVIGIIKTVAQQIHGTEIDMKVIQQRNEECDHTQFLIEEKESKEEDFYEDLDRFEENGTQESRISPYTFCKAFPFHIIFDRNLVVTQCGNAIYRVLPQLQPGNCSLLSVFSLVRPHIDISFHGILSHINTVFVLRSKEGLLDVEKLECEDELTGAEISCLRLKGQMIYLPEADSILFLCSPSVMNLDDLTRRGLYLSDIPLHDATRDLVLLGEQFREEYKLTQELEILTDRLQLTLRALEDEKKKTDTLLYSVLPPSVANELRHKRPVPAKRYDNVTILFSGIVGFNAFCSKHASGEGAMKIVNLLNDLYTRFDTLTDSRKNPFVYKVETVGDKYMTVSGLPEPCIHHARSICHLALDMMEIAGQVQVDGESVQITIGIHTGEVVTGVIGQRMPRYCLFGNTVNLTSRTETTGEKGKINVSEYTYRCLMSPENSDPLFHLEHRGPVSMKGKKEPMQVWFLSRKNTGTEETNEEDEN
T1 sequence (Q9ERL9 1-691 partner): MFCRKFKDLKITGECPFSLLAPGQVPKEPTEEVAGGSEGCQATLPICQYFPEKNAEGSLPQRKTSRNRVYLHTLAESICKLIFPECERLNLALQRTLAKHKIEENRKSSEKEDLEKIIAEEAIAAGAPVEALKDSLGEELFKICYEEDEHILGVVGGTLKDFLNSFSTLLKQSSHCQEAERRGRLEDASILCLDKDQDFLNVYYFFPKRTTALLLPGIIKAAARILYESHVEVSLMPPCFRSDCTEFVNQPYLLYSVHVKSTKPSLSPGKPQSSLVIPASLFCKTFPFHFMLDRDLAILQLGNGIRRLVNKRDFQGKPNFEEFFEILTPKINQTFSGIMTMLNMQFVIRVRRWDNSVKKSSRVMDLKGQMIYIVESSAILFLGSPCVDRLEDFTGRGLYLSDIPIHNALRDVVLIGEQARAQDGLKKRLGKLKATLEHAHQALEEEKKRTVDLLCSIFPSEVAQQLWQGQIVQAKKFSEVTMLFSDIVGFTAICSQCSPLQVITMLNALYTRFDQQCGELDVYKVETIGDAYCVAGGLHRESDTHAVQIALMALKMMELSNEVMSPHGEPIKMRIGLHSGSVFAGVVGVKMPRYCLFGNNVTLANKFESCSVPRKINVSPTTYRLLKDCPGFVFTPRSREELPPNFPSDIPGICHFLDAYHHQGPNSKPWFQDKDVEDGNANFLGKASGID
Briefly: sGC signaling (phospho-VASP239) in mouse aortic valve interstitial cells. The note with it: otherwise naïve mVICs, vs vehicle-treated cells. On the procedure:
To confirm that ataciguat effectively activated sGC in cells, mouse aortic valve interstitial cells (mVICs) were isolated from C57BL6/J mice treated with ataciguat or other sGC agonists as internal controls. […] To determine whether ataciguat could attenuate signaling cascades central to the initiation and progression of valve calcification in vitro, cells were treated with BMP2 with or without ataciguat. In these studies, ataciguat reduced phospho-SMAD1/5/8 signaling (e.g., canonical BMP signaling) as well as expression of osteogenic genes induced by BMP2 (e.g., osterix).

In data set [2] the test system is LPA-induced BMP signaling. The experiment in a line: LPA-induced BMP signaling (Osterix mRNA) in aortic valve interstitial cells. To be noted: treatment with 18:0 lyso-PA alone. As to the method:
as §1
Additional studies were conducted in aortic valve interstitial cells to examine the effects of ataciguat on LPA-induced BMP signaling and BMP target gene expression. Cells were treated with 18:0 lyso-PA, with or without ataciguat, and Osterix mRNA levels were determined.

For the molecule `Nc1nc(-c2nn(Cc3ccccc3F)c3ncccc23)nc(N)c1N1CCOCC1` [BAY41-8543, 2-[1-[(2-fluorophenyl)methyl]-1H-pyrazolo[3,4-b]pyridin-3-yl]-5-(4-morpholinyl)-4,6-pyrimidinediamine], the values for the Osterix expression entry in data set [1] (at 10 μM) and in data set [1] (tested 1 nM to 10 μM) were “highly efficacious” and “dose-dependent reductions”, respectively.

Regarding `CCN(CC)/[N+]([O-])=N/O.CCNCC` [DEA-NONOATE], the “sGC-dependent signaling (phospho-VASP^239 levels)” value on sGC is listed as “increased phospho-VASP^239 levels to a similar extent”.

As for `OCc1ccc(-c2nn(Cc3ccccc3)c3ccccc23)o1` [lificiguat], in data set [1] (tested 1 nM to 1 μM), the Osterix expression result was “lose efficacy at higher concentrations”.

`COC(=O)Nc1c(N)nc(-c2nn(Cc3ccccc3F)c3ncccc23)nc1N` [nelociguat, methyl (4,6-diamino-2-(1-(2-fluorobenzyl)-1H-pyrazolo[3,4-b]pyridin-3-yl)pyrimidin-5-yl)carbamate]: in data set [1] (suggested from loss of effect at the highest concentration), the “concentration that may be cytotoxic” value was not below 10 µM.

Regarding `COC(=O)Nc1c(N)nc(-c2nn(Cc3ccccc3F)c3ncc(F)cc23)nc1N` [vericiguat, methyl (4,6-diamino-2-(5-fluoro-1-(2-fluorobenzyl)-1H-pyrazolo[3,4-b]pyridin-3-yl)pyrimidin-5-yl)carbamate], in data set [1] (tested 1 nM to 1 μM), the Osterix expression result was “only at the highest dose tested”.

As for lysophosphatidic acid [18:0 lyso-PA], the “expression of Osterix” value in data set [2] is “increased expression”.

The record behind these values is patent US12465605B2, “Methods and materials for gender-dependent treatment of cardiovascular dysfunction” (Mayo Foundation for Medical Education and Research, priority 2019, dated 2025).
